Series [1] addresses Glycogen synthase kinase-3 beta (Homo sapiens, UniProt P49841). The series can be described thus: Inhibition of human GSK3-beta.
For series [2], the target named is Cyclin-dependent kinase 1 (Homo sapiens, UniProt P06493). The series can be described thus: Inhibition of CDK1.
Series [3] deals with Receptor tyrosine-protein kinase erbB-2 (Homo sapiens, UniProt P04626). The series can be described thus: Inhibition of HER2.
Series [4] deals with Proto-oncogene tyrosine-protein kinase Src (Homo sapiens, UniProt P12931). The series is described as follows: Inhibition of SRC.
The target of series [5] is Tyrosine-protein kinase Lck (Homo sapiens, UniProt P06239). The series is described as follows: Inhibition of Lck.
Series [6] deals with Angiopoietin-1 receptor (Homo sapiens, UniProt Q02763). The series can be described thus: Inhibition of Tie2.
In series [7] the target is Mast/stem cell growth factor receptor Kit (Homo sapiens, UniProt P10721). The series can be described thus: Inhibition of cKit.
Series [8] deals with Hepatocyte growth factor receptor (Homo sapiens, UniProt P08581). The series is described as follows: Inhibition of cMet.
A short description of series [9]: Inhibition of VEGFR.
For series [10], the target named is Fibroblast growth factor receptor 3 (Homo sapiens, UniProt P22607). The series is described as follows: Inhibition of FGFR3.
The target in series [11] is Aurora kinase B (Homo sapiens, UniProt Q96GD4). The series can be described thus: Inhibition of Aurora B.
Series [12] deals with Dual specificity mitogen-activated protein kinase kinase 1 (Homo sapiens, UniProt Q02750). The series is described as follows: Inhibition of MEK1.
The target of series [13] is Serine/threonine-protein kinase B-raf (Homo sapiens, UniProt P15056). The series is described as follows: Inhibition of BRAF.
Series [14] deals with Mitogen-activated protein kinase 3 (Homo sapiens, UniProt P27361). The series is described as follows: Inhibition of ERK1.
Series [15] in a line: Inhibition of PKA expressed in Escherichia coli.
Series [16] has as its target Cyclin-dependent kinase 2 (Homo sapiens, UniProt P24941). The series can be described thus: Inhibition of CDK2.
The target of series [17] is Cyclin-dependent kinase 5 (Homo sapiens, UniProt Q00535). The series can be described thus: Inhibition of CDK5.
Series [18] concerns the target Mitogen-activated protein kinase 14 (Homo sapiens, UniProt Q16539). The series can be described thus: Inhibition of p38alpha.
Series [19] deals with Mitogen-activated protein kinase 8 (Homo sapiens, UniProt P45983). The series can be described thus: Inhibition of JNK1.
Chain of Mitogen-activated protein kinase 8 (P45983 whole entry): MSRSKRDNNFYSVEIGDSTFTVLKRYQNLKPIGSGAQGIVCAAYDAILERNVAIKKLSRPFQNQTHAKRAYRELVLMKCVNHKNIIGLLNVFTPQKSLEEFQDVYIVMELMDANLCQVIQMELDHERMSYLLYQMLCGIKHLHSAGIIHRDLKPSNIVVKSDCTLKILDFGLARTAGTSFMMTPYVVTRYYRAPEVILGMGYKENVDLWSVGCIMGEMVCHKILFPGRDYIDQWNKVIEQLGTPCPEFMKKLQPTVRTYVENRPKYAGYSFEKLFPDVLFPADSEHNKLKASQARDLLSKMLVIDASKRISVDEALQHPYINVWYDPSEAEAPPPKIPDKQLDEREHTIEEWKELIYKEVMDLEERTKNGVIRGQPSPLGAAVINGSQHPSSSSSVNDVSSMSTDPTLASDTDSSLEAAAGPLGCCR
The target in series [20] is Inhibitor of nuclear factor kappa-B kinase subunit beta (Homo sapiens, UniProt O14920). The series can be described thus: Inhibition of IKK-beta.
Chain of Inhibitor of nuclear factor kappa-B kinase subunit beta (O14920 whole entry): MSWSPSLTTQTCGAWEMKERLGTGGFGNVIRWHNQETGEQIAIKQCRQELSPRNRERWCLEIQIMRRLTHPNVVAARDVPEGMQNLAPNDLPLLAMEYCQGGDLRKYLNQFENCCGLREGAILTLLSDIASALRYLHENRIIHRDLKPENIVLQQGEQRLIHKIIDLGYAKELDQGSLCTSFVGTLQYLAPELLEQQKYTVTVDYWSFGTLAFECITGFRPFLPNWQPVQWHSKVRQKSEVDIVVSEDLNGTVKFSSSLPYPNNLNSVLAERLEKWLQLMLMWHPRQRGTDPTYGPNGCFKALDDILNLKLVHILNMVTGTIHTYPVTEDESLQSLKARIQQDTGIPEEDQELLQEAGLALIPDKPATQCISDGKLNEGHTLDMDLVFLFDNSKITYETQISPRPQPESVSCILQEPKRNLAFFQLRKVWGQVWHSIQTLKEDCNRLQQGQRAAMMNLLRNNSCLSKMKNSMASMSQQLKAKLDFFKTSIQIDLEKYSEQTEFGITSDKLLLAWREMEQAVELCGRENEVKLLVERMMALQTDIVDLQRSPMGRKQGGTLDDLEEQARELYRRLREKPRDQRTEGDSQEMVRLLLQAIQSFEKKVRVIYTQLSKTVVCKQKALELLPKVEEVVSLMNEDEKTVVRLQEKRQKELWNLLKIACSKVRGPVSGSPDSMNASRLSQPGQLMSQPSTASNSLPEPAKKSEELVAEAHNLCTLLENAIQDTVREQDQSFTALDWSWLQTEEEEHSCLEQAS
For series [21], the target named is Mitogen-activated protein kinase kinase kinase 1 (Homo sapiens, UniProt Q13233). The series is described as follows: Inhibition of MEKK1.
Chain of Mitogen-activated protein kinase kinase kinase 1 (Q13233 whole entry): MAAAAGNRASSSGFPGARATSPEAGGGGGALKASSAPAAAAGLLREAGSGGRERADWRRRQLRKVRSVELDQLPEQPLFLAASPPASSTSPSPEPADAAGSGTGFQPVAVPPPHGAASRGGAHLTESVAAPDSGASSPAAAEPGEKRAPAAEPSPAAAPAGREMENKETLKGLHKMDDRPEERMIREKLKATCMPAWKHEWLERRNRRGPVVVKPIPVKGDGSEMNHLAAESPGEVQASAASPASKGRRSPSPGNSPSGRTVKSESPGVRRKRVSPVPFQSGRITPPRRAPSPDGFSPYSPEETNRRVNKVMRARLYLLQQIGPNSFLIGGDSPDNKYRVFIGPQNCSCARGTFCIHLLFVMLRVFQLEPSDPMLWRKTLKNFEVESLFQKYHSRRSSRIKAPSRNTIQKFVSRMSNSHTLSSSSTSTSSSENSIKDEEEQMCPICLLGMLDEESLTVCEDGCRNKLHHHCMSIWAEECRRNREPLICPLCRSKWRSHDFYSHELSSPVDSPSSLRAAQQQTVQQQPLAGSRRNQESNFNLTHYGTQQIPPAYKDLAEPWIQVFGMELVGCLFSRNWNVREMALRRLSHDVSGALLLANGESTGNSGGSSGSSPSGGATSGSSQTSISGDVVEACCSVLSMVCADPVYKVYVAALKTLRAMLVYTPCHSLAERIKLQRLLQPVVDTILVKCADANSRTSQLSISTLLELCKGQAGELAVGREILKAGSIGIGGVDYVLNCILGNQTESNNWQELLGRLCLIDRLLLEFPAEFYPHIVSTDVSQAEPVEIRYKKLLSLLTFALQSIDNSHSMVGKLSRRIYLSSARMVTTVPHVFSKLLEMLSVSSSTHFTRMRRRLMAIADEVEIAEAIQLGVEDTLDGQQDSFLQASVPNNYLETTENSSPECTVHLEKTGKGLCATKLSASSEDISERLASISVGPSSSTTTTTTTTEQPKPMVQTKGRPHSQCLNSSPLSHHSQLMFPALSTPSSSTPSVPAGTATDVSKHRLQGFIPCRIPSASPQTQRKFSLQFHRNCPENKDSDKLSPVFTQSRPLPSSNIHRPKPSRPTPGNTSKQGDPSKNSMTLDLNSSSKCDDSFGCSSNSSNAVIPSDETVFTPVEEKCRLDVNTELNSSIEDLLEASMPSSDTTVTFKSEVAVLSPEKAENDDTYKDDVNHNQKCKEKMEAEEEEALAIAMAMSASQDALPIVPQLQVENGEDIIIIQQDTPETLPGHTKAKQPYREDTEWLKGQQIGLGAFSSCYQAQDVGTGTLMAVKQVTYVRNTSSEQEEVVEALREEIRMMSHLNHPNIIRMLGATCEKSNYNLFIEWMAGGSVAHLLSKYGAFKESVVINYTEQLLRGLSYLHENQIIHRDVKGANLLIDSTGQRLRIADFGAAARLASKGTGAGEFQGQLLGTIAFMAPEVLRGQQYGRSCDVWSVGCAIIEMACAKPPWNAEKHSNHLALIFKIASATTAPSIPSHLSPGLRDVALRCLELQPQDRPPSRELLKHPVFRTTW
Series [22] has as its target Protein kinase C theta type (Homo sapiens, UniProt Q04759). The series is described as follows: Inhibition of PKCtheta.
In series [23] the target is Casein kinase I isoform delta (Homo sapiens, UniProt P48730). The series is described as follows: Inhibition of CK1delta expressed in Escherichia coli.
The nature of series [24]: Total clearance in rat at 0.1 mg/kg, iv. Type of series: ADME, organism-based. Also on record: dose 0.1 mg/kg, route intravenous. The note with it: in vivo.
For series [25], the system named is Rattus norvegicus. The series is described as follows: Volume of distribution at steady state in rat […]. It is filed as ADME, organism-based. The note with it: in vivo.
Series [26] in a line: AUC in rat at 1 mg/kg, po. The conditions noted are these: plasma. Also on record: dose 1 mg/kg, route oral. It is filed as ADME, organism-based.
A short description of series [27]: Oral bioavailability in rat at 1 mg/kg. Type of series: ADME, organism-based. The note with it: in vivo.

Chain of Glycogen synthase kinase-3 beta (P49841 whole entry): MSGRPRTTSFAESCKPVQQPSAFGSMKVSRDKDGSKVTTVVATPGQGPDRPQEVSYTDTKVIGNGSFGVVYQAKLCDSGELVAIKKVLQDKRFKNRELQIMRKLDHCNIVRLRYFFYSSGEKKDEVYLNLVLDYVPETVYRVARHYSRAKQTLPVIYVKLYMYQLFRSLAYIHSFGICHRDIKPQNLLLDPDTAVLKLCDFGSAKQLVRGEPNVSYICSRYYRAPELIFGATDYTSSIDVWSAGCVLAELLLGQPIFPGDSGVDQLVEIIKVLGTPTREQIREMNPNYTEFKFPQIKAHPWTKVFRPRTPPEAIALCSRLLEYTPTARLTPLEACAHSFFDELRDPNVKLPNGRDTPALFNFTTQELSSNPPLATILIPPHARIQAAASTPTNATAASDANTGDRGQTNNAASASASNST
Chain of Receptor tyrosine-protein kinase erbB-2 (P04626 whole entry): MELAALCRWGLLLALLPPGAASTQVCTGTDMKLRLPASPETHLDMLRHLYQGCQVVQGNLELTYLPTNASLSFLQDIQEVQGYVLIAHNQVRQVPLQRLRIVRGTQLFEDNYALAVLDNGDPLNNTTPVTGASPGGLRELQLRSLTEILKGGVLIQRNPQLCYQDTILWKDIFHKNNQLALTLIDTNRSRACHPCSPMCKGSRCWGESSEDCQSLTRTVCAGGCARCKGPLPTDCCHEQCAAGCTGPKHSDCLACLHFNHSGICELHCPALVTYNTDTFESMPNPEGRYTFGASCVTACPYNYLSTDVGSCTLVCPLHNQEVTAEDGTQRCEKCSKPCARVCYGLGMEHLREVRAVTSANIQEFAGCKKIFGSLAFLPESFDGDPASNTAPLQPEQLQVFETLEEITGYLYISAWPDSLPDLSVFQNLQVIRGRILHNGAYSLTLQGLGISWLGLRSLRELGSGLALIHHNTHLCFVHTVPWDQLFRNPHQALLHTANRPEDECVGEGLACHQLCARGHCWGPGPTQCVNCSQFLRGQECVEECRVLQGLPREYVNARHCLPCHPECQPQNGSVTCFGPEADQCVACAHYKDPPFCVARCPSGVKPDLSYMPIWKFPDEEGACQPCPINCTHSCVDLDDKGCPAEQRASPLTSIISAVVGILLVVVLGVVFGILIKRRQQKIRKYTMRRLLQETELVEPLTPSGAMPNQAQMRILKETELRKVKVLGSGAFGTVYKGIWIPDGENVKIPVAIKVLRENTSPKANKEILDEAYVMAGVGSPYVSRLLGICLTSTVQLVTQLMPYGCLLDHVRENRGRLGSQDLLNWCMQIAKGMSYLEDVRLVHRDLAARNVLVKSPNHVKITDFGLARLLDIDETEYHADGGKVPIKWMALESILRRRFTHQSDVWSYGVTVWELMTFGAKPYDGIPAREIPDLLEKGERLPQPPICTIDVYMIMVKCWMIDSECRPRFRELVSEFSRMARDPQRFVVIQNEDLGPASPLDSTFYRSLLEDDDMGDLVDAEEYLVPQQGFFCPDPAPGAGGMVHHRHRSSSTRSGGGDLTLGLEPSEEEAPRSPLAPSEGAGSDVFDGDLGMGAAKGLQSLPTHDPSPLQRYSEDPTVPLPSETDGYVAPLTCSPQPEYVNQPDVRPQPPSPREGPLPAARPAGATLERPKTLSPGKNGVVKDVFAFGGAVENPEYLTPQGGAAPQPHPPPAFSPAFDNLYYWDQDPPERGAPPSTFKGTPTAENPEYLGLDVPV
Chain of Cyclin-dependent kinase 1 (P06493 whole entry): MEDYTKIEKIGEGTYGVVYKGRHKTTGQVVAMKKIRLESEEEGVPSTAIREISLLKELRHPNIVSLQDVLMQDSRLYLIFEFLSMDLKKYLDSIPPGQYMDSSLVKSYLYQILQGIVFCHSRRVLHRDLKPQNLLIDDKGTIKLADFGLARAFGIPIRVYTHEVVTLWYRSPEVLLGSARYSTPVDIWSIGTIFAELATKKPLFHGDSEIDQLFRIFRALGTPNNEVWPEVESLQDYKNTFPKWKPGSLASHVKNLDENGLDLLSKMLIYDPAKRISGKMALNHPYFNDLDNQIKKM
Chain of Mitogen-activated protein kinase 14 (Q16539 whole entry): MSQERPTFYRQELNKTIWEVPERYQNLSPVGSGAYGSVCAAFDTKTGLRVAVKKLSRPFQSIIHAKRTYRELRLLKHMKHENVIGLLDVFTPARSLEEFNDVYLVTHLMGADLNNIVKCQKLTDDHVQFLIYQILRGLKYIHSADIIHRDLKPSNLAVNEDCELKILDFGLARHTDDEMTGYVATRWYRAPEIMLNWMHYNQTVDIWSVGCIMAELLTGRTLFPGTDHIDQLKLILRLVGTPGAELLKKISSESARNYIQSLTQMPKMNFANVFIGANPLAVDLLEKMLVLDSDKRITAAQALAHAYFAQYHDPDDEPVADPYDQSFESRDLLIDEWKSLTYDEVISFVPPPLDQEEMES

For orientation: IC50 means the concentration that inhibits the measured activity by half. Read a high IC50 as lower potency. `COc1ccc(CSc2nnc(-c3ccc4c(c3)CCO4)o2)cc1C(F)(F)F` yielded an IC50 in series [1] of 5.7 nM.

`Fc1cccc(CSc2nnc(-c3ccc4c(c3)CCO4)o2)c1` displayed a concentration for half-maximal inhibition (IC50) in [1] of 54 nM.

`Clc1ccc(CSc2nnc(-c3ccc4c(c3)CCO4)o2)cc1` returned an IC50 in series [1] of 280 nM.

With `Clc1ccccc1CSc1nnc(-c2ccc3c(c2)CCO3)o1`, the IC50 in series [1] was 200 nM.

`Clc1cccc(CSc2nnc(-c3ccc4c(c3)CCO4)o2)c1` registered a half-inhibitory concentration (IC50) in series [1] of 94 nM.

In series [1], `COc1ccc(CSc2nnc(-c3ccc4ncccc4c3)o2)cc1C(F)(F)F` registered an IC50 of 18 nM.

Consider `Fc1cccc(SCc2nnc(-c3ccc4c(c3)CCO4)o2)c1`, for which the IC50 in series [1] is 680 nM.

In the case of `COc1ccc(CSc2nnc(-c3ccc4ncsc4c3)o2)cc1C(F)(F)F`, the IC50 in series [1] came out at 3.1 nM.

`COc1ccc(CSc2nnc(-c3ccc4c(c3)CCO4)o2)cc1Cl` showed a concentration for half-maximal inhibition (IC50) in series [1] of 13 nM.

For `c1ccc(CSc2nnc(-c3ccc4c(c3)CCO4)o2)cc1`, 210 nM corresponded to half-maximal inhibition in series [1] (IC50).

On to `Fc1cccc(COc2nnc(-c3ccc4c(c3)CCO4)o2)c1`, for which the half-maximal inhibitory concentration (IC50) in [1] was greater than 10000 nM.

Regarding `COc1ccc(CSc2nnc(-c3ccc4c(c3)CCO4)o2)cc1F`, in [1], the half-maximal inhibitory concentration (IC50) turned out to be 44 nM.

`COc1ccc(CSc2nnc(-c3ccc4c(c3)CCO4)o2)cc1` gave an IC50 in [1] of 220 nM.

`Cn1cnc2ccc(-c3nnc(SCc4cccc(C(F)(F)F)c4)o3)cc21`: in [1], half-maximal inhibition (IC50) was put at 9.4 nM.

Regarding `COc1ccc(CSc2nnc(-c3ccc4c(c3)CCO4)o2)cc1C#N`, it took 28 nM to reach half-maximal inhibition in series [1] (IC50).

The compound `COc1ccc(-c2coc3ccc(-c4nnc(SCc5cccc(C(F)(F)F)c5)o4)cc23)cc1` displayed a half-inhibitory concentration (IC50) in series [1] of 8.4 nM.

For `COc1ccc(CSc2nnc(-c3ccc4[nH]ncc4c3)o2)cc1C(F)(F)F`, the IC50 in series [1] was 16 nM.

In the case of `COc1ccc(CSc2nnc(-c3ccc4occc4c3)o2)cc1C(F)(F)F`, the IC50 in series [1] came to 4.9 nM.

In turn, `FC(F)(F)c1cccc(CSc2nnc(-c3ccc4c(c3)CCO4)o2)c1` yielded an IC50 in series [1] of 68 nM.

Take `N#Cc1cccc(CSc2nnc(-c3ccc4c(c3)CCO4)o2)c1`: the IC50 in series [1] was found to be 91 nM.

What is called clearance is the volume of plasma or blood freed of the substance per unit of time. What is called AUC is concentration integrated over time. A low value points to less exposure. For orientation: bioavailability means the share of a dose that reaches the circulation, judged against a reference dose that is usually intravenous. A low value points to poor availability. With `COc1ccc(-n2cnc3ccc(-c4nnc(SCc5cccc(C#N)c5)o4)cc32)cc1`, the concentration for half-maximal inhibition (IC50) in series [2] was 4600 nM; in [1] it was 2.3 nM; in [3], greater than 10000 nM; in series [4], greater than 10000 nM; in series [5], greater than 10000 nM; in series [6] it was greater than 10000 nM. Also, the IC50 in series [7], in series [8], in series [9], in series [10], in [11] and in [12] was greater than 10000 nM each time. Besides, the IC50 in series [13], in series [14], in [15], in series [16], in series [17] and in series [18] was greater than 10000 nM in each case. Further, the half-inhibitory concentration (IC50) in series [19] is greater than 10000 nM; in series [20], greater than 10000 nM; in series [21], 8100 nM; in [22], 3500 nM; in series [23], greater than 10000 nM. The same compound showed a clearance in series [24] of 35.6 mL/min/kg. This compound had a Vdss in series [25] of 1.453 L/kg. Besides, the area under the curve (AUC) in series [26] stood at 7.9 ng·h/mL. Also, in [27], the bioavailability came out at 1.7%.

As for `Fc1cccc(CNc2nnc(-c3ccc4c(c3)CCO4)o2)c1`, in series [1], the 50% inhibitory concentration (IC50) was found to be 330 nM.

In [1], `COC(=O)c1cccc(CSc2nnc(-c3ccc4c(c3)CCO4)o2)c1` yielded an IC50 of 630 nM.

In turn, `COc1ccc(-c2coc3ccc(-c4nnc(SCc5cccc(C#N)c5)o4)cc23)cc1` registered an IC50 in [1] of 3.5 nM.

`COc1ccc(-n2cnc3ccc(-c4nnc(SCc5cccc(C(F)(F)F)c5)o4)cc32)cc1`: the IC50 in series [1] was 2.5 nM.

Turning to `COc1ccc(-n2cnc3ccc(-c4nnc(SCc5ccc(OC)c(C(F)(F)F)c5)o4)cc32)cc1`, the half-inhibitory concentration (IC50) in series [1] stood at 8.6 nM.

`COc1ccc(-c2coc3ccc(-c4nnc(SCc5ccc(OC)c(C(F)(F)F)c5)o4)cc23)cc1` came in with an IC50 in series [1] of 25 nM.

In the case of `O=[N+]([O-])c1ccc(NCCNc2ncc(-c3ncc[nH]3)c(-c3ccc(Cl)cc3Cl)n2)nc1`, inhibition in [1] was half-maximal at 10 nM (IC50).

For `Fc1cccc(CCc2nnc(-c3ccc4c(c3)CCO4)o2)c1`, the IC50 in series [1] is 340 nM.

The record behind these values is ChEMBL document CHEMBL1152750, “Design, synthesis and structure-activity relationships of 1,3,4-oxadiazole derivatives as novel inhibitors of glycogen synthase kinase-3beta” (Bioorg Med Chem, 2009).
